Reference: patent US8993756B2 (Merck Sharp & Dohme Corp., priority 2011, dated 2015)

Experiments:
[1] = target: JAK3 (Homo sapiens (Human), UniProt P52333); experiment: Jak Biochemical HTRF Assay (JAK3); conditions: recombinant GST-tagged catalytic domain, [ATP] 2.9 μM
[2] = target: JAK2 (Homo sapiens (Human), UniProt O60674); experiment: Jak Biochemical HTRF Assay (JAK2); conditions: recombinant GST-tagged catalytic domain, [ATP] 8.5 μM
JAK2, sequence (O60674 849-1124): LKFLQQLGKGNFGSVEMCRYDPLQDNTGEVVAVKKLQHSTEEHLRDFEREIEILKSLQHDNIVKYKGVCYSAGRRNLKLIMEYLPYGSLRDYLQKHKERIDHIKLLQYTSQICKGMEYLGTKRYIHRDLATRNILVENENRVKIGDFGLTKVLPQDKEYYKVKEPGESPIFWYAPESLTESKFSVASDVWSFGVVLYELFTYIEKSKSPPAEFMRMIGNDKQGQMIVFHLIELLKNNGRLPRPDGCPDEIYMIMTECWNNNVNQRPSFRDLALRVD

JAK3, sequence (P52333 822-1111): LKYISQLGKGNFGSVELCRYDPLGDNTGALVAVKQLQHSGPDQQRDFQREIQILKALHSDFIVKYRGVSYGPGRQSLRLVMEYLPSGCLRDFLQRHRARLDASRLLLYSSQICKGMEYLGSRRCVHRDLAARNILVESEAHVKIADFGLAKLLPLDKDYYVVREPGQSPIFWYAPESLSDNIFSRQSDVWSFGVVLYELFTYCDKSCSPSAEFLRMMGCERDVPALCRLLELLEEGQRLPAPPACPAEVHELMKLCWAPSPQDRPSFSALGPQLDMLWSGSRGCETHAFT

| IC50 [1] [nM] | IC50 [2] [nM] | IC50 ([1]; given as range class) [nM] | IC50 ([2]; given as range class) [nM] | SMILES |
| --- | --- | --- | --- | --- |
|  |  | 10 to 500 | 10 to 500 | COc1ncccc1-c1c[nH]c2ncnc(-c3ccccc3)c12 [Example 32-1, 5-(2-Methoxypyridin-3-yl)-4-phenyl-7H-pyrrolo[2,3-d]pyrimidine] |
| 2.5 | > 1500 |  |  | C=C(C)C(=O)Nc1cccc(-c2ncnc3[nH]cc(-c4nnc(C)o4)c23)c1 [Example 26, N-(3-(5-(5-Methyl-1,3,4-oxadiazol-2-yl)-7H-pyrrolo[2,3-d]pyrimidin-4-yl)phenyl)methacrylamide] |
| 2 | > 1500 |  |  | CCOC(=O)c1c[nH]c2ncnc(-c3cccc(NC(=O)/C=C/c4ccncc4)c3)c12 [Example 5-17, ethyl 4-(3-{[(2E)-3-pyridin-4-ylprop-2-enoyl]amino}phenyl)-7H-pyrrolo[2,3-d]pyrimidine-5-carboxylate] |
| 0.016 | > 1500 |  |  | C=CC(=O)Nc1cccc(-c2ncnc3[nH]cc(-c4ccccc4)c23)c1 [Example 20-9, N-[3-(5-phenyl-7H-pyrrolo[2,3-d]pyrimidin-4-yl)phenyl]prop-2-enamide] |
|  |  | 10 to 500 | > 500 | COc1ccccc1-c1c[nH]c2ncnc(-c3cccc(C(=O)N(C)C)c3)c12 [Example 33-5, 3-[5-(2-methoxyphenyl)-7H-pyrrolo[2,3-d]pyrimidin-4-yl]-N,N-dimethylbenzamide] |
| 5 | > 1500 |  |  | C=C(C)C(=O)Nc1cccc(-c2ncnc3[nH]cc(-c4cnco4)c23)c1 [Example 30, N-(3-(5-(Oxazol-5-yl)-7H-pyrrolo[2,3-d]pyrimidin-4-yl)phenyl)methacrylamide] |
| 3.1 | 93 |  |  | COc1cccc(-c2c[nH]c3ncnc(-c4ccccc4)c23)c1 [Example 32-3, 5-(3-methoxyphenyl)-4-phenyl-7H-pyrrolo[2,3-d]pyrimidine] |
| 8.2 | > 1500 |  |  | C/C=C/S(=O)(=O)Nc1cccc(-c2ncnc3[nH]cc(C(=O)OCC)c23)c1 [Example 10-2, ethyl 4-(3-{[(1E)-prop-1-en-1-ylsulfonyl]amino}phenyl)-7H-pyrrolo[2,3-d]pyrimidine-5-carboxylate] |
|  |  | 10 to 500 | 10 to 500 | COc1cccc(-c2ncnc3[nH]cc(-c4ccccc4OC)c23)c1 [Example 33-4, 5-(2-methoxphenyl)-4-(3-methoxyphenyl)-7H-pyrrolo[2,3-d]pyrimidine] |
|  |  | 10 to 500 | > 500 | CCOC(=O)c1c[nH]c2ncnc(-c3cccc(NC(=O)/C=C/c4cccnc4)c3)c12 [Example 5-30, ethyl 4-(3-{[(2E)-3-pyridin-3-ylprop-2-enoyl]amino}phenyl)-7H-pyrrolo[2,3-d]pyrimidine-5-carboxylate] |
|  | > 1500 | < 10 |  | C=C(CN)C(=O)Nc1cccc(-c2ncnc3[nH]cc(C(=O)OCC)c23)c1 [Example 13-2, Ethyl 4-(3-(2-(aminomethyl)acrylamido)phenyl)-7H-pyrrolo[2,3-d]pyrimidine-5-carboxylate] |
| 0.66 | > 1500 |  |  | C=C(CN1CCOCC1)C(=O)Nc1cccc(-c2ncnc3[nH]cc(C(=O)OCC)c23)c1 [Example 5-41, ethyl 4-(3-{[2-(morpholin-4-ylmethyl)acryloyl]amino}phenyl)-7H-pyrrolo[2,3-d]pyrimidine-5-carboxylate] |
| 0.024 | > 1500 |  |  | C=C(CF)C(=O)Nc1cccc(-c2ncnc3[nH]cc(C(=O)OCC)c23)c1 [Example 15-1, Ethyl-4-(3-{[2-(fluoromethyl)acryloyl]amino}phenyl)-7H-pyrrolo[2,3-d]pyrimidine-5-carboxylate] |

Continued, compound first:

| SMILES | IC50 [1] [nM] | IC50 [2] [nM] | IC50 ([1]; given as range class) [nM] | IC50 ([2]; given as range class) [nM] |
| --- | --- | --- | --- | --- |
| CCOC(=O)c1c[nH]c2ncnc(-c3ccccc3F)c12 [Example 1-41, ethyl 4-(2-fluorophenyl)-7H-pyrrolo[2,3-d]pyrimidine-5-carboxylate] | 7.5 | 168 |  |  |
| CCOC(=O)c1c[nH]c2ncnc(-c3ccc(N)cc3)c12 [Example 1-80, ethyl 4-(4-aminophenyl)-7H-pyrrolo[2,3-d]pyrimidine-5-carboxylate] | 2.3 | 53 |  |  |
| C=C(F)C(=O)Nc1cccc(-c2ncnc3[nH]cc(C(=O)OCC)c23)c1 [Example 5-1, Ethyl 4-{3-[(2-fluoroacryloyl)amino]phenyl}-7H-pyrrolo[2,3-d]pyrimidine-5-carboxylate] | 0.024 | > 1500 |  |  |
| C=C(C)C(=O)Nc1cccc(-c2ncnc3[nH]cc(C(=O)OCC)c23)c1C [Example 4-13, ethyl 4-{2-methyl-3-[(2-methylacryloyl)amino]phenyl}-7H-pyrrolo[2,3-d]pyrimidine-5-carboxylate] |  |  | 10 to 500 | > 500 |
| CCOC(=O)c1c[nH]c2ncnc(-c3cccc(C(N)=O)c3)c12 [Example 1-12, ethyl 4-(3-carbamoylphenyl)-7H-pyrrolo[2,3-d]pyrimidine-5-carboxylate] |  |  | 10 to 500 | > 500 |
| CCOC(=O)c1c[nH]c2ncnc(-c3cccc(OCC(F)(F)F)c3)c12 [Example 1-21, ethyl 4-[3-(2,2,2-trifluoroethoxy)phenyl]-7H-pyrrolo[2,3-d]pyrimidine-5-carboxylate] | 3.5 | 73 |  |  |
| C=C(C)C(=O)Nc1cc(-c2ncnc3[nH]cc(C(=O)OCC)c23)ccc1C(=O)N(C)C [Example 4-28, ethyl 4-{4-(dimethylcarbamoyl)-3-[(2-methylacryloyl)amino]phenyl}-7H-pyrrolo[2,3-d]pyrimidine-5-carboxylate] | 1.5 | > 1500 |  |  |
| CCOC(=O)c1c[nH]c2ncnc(-c3ccc(C#N)cc3)c12 [Example 1-10, ethyl 4-(4-cyanophenyl)-7H-pyrrolo[2,3-d]pyrimidine-5-carboxylate] |  |  | 10 to 500 | > 500 |
| CCOC(=O)c1c[nH]c2ncnc(-c3ccc4c(c3)CCN(C(=O)OC(C)(C)C)C4)c12 [Example 1-74, tent-butyl 6-[5-(ethoxycarbonyl)-7H-pyrrolo[2,3-d]pyrimidin-4-yl]-3,4-dihydroisoquinoline-2(1H)-carboxylate] |  |  | 10 to 500 | > 500 |
| CCOC(=O)c1c[nH]c2ncnc(-c3ccc(O)cc3)c12 [Example 1-35, ethyl 4-(4-hydroxyphenyl)-7H-pyrrolo[2,3-d]pyrimidine-5-carboxylate] | 5.7 | 134 |  |  |
| CCOC(=O)c1c[nH]c2ncnc(-c3ccc(Cl)c(N)c3)c12 [Example 1-24, ethyl 4-(3-amino-4-chlorophenyl)-7H-pyrrolo[2,3-d]pyrimidine-5-carboxylate] | 7.5 | 125 |  |  |
| CCOC(=O)c1c[nH]c2ncnc(-c3ccc(C(=O)OC)cc3)c12 [Example 1-9, ethyl 4-[4-(methoxycarbonyl)phenyl]-7H-pyrrolo[2,3-d]pyrimidine-5-carboxylate] |  |  | 10 to 500 | > 500 |
| CCOC(=O)c1c[nH]c2ncnc(-c3ccc(C)c(N)c3)c12 [Example 1-22, ethyl 4-(3-amino-4-methylphenyl)-7H-pyrrolo[2,3-d]pyrimidine-5-carboxylate] | 4.6 | 78 |  |  |
| CCOC(=O)c1c[nH]c2ncnc(-c3ccc4c(c3)CN(C(=O)OC(C)(C)C)CC4)c12 [Example 1-78, tert-butyl 7-[5-(ethoxycarbonyl)-7H-pyrrolo[2,3-d]pyrimidin-4-yl]-3,4-dihydroisoquinoline-2(1H)-carboxylate] |  |  | 10 to 500 | > 500 |
| CCOC(=O)c1c[nH]c2ncnc(-c3ccc(N4CCS(=O)(=O)CC4)cc3)c12 [Example 1-97, ethyl 4-[4-(1,1-dioxidothiomorpholin-4-yl)phenyl]-7H-pyrrolo[2,3-d]pyrimidine-5-carboxylate] | 6.8 | 348 |  |  |
| CCOC(=O)c1c[nH]c2ncnc(-c3cnn(C)c3)c12 [Example 1-27, ethyl 4-(1-methyl-1H-pyrazol-4-yl)-7H-pyrrolo[2,3-d]pyrimidine-5-carboxylate] |  |  | 10 to 500 | > 500 |
| CCOC(=O)c1c[nH]c2ncnc(-c3ccc(CC#N)nc3)c12 [Example 1-104, ethyl 4-[6-(cyanomethyl)pyridin-3-yl]-7H-pyrrolo[2,3-d]pyrimidine-5-carboxylate] |  |  | 10 to 500 | > 500 |
| CCOC(=O)c1c[nH]c2ncnc(-c3cccc(C(=O)OC)c3)c12 [Example 1-8, ethyl 4-[3-(methoxycarbonyl)phenyl]-7H-pyrrolo[2,3-d]pyrimidine-5-carboxylate] |  |  | 10 to 500 | > 500 |
| CCOC(=O)c1c[nH]c2ncnc(C3=CCCN(C(=O)OC(C)(C)C)C3)c12 [Example 1-19, ethyl 4-[1-(tert-butoxycarbonyl)-1,2,5,6-tetrahydropyridin-3-yl]-7H-pyrrolo[2,3-d]pyrimidine-5-carboxylate] |  |  | 10 to 500 | > 500 |
| CCOC(=O)c1c[nH]c2ncnc(-c3cccc(N4CCS(=O)(=O)CC4)c3)c12 [Example 1-95, ethyl 4-[3-(1,1-dioxidothiomorpholin-4-yl)phenyl]-7H-pyrrolo[2,3-d]pyrimidine-5-carboxylate] |  |  | 10 to 500 | > 500 |
| C/C=C\C(=O)Nc1cccc(-c2ncnc3[nH]cc(C(=O)OCC)c23)c1 [Example 5-9, ethyl 4-{3-[(2Z)-but-2-enoylamino]phenyl}-7H-pyrrolo[2,3-d]pyrimidine-5-carboxylate] | 8.3 | > 1500 |  |  |
| CCOC(=O)c1c[nH]c2ncnc(-c3cnn(CCS(C)(=O)=O)c3)c12 [Example 1-92, ethyl 4-{1-[2-(methylsulfonyl)ethyl]-1H-pyrazol-4-yl}-7H-pyrrolo[2,3-d]pyrimidine-5-carboxylate] |  |  | 10 to 500 | > 500 |
| C=C(C)C(=O)Nc1cccc(-c2ncnc3[nH]cc(C(=O)OCC)c23)c1F [Example 4-2, Ethyl 4-{2-fluoro-3-[(2-methylacryloyl)amino]phenyl}-7H-pyrrolo[2,3-d]pyrimidine-5-carboxylate] | 4 | > 1500 |  |  |
